Molecular target: T1, rhMyD88(TIR) (Homo sapiens, UniProt Q99836)
T1 construct: gene MYD88; Results text calls it only rhMyD88
Assay: isothermal titration calorimetry (Nano-ITC)
Type: binding

T1 sequence (Q99836 159-296 limits assumed): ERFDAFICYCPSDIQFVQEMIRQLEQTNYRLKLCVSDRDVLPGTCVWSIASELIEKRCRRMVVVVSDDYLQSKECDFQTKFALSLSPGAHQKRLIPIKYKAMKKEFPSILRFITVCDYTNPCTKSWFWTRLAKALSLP

Compound: COc1cc2c(c(OC)c1OC)-c1c(cc3c(c1OC)OCO3)CC(C)C(C)C2 (stereo not shown) [Schisandrin B]
- Kd: 125 µM

Reference: article PMC9631063, “Schisandrin B Attenuates Diabetic Cardiomyopathy by Targeting MyD88 and Inhibiting MyD88‐Dependent Inflammation” (Advanced Science, 2022)
